According to patent US6251854A, “N-methyl-d-aspartate receptor channel blockers and method for identifying such” (priority 1999, dated 2001):
Entries after “also recorded” stand apart in the source; their conditions may differ. Structures can show the parent of a compound that is named as a salt. Where two headings read alike, the source gives them in different places. Non-standard residues stand in square brackets, D forms with d. Residues, ends and D or L forms follow the SMILES beside them.

Assays:
[1] = biological target: T1, human NR1-NR2A NMDA receptor subunits (Homo sapiens, UniProt Q05586+Q12879); experiment: amphibian oocyte current blockade assay (agonist-evoked currents); assay type: cell-based; conditions: for potency rank as NMDA blocker (FIG. 1): unacetylated peptides; for selectivity for NMDA receptor channels: versus non-NMDA glutamate receptors
T1 construct: expressed in transfected cells; host or cells: Xenopus laevis oocytes
T1 sequence (Q12879 23-1464, other chains not shown): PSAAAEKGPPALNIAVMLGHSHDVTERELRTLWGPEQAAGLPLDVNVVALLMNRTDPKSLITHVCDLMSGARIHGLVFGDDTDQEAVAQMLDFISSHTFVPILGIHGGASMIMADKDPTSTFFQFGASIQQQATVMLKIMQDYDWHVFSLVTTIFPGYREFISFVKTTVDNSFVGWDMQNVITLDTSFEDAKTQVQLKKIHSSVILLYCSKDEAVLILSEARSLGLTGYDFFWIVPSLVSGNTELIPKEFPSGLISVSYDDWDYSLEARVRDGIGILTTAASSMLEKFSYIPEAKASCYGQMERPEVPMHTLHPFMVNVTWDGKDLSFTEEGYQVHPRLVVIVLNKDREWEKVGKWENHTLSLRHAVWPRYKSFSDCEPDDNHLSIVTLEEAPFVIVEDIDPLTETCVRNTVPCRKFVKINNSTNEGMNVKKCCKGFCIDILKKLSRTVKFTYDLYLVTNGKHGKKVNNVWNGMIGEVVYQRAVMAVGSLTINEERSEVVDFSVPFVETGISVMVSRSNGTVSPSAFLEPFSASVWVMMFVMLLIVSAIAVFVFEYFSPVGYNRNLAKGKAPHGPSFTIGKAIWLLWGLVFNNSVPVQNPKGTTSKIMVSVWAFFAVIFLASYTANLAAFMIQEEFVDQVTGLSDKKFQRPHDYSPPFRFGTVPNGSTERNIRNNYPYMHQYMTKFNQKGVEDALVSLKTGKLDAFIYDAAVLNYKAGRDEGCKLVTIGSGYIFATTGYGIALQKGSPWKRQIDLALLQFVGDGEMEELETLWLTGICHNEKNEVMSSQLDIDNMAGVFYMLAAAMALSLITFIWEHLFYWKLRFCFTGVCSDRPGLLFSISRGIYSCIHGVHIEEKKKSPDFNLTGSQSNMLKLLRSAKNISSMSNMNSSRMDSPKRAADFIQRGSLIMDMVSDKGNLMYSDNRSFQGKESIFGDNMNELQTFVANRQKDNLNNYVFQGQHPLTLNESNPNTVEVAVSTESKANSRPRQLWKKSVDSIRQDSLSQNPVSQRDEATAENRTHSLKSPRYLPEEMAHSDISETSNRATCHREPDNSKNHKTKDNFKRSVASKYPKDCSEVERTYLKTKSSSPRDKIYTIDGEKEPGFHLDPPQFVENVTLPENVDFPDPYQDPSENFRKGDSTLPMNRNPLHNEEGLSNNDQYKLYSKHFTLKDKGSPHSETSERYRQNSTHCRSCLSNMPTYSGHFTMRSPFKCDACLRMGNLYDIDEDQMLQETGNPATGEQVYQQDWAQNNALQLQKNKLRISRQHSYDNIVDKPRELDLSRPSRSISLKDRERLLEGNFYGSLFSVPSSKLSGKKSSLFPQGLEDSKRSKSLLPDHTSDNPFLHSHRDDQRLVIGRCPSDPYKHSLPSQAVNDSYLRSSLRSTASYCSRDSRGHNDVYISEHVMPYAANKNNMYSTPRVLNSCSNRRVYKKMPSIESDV
Protocol: Briefly, in the amphibian oocyte current blockade assay, human NMDA receptors are expressed in the oocytes. The receptors are stimulated in the cells by NMDA agonists. Agonist-induced current is the control against which current blockade levels achieved by incubating the oocytes with candidate NMDA blockers are measured.
(A) NMDA specific receptor channel blocking peptides ("NMDA blockers") were identified by screening synthetic combinatorial libraries (SCL) (see e.g., the library and peptide synthesis methods described in Ostresh, et al., Meth Enzymol (1996) 267:220-34, incorporated herein by reference) and assaying for blockade of agonist-evoked currents by the human NR1-NR2A NMDA receptor subunits expressed in amphibian (Xenopus laevis) oocytes (see, for example, the assay method described in Ferrer-Monteil and Montal, METHODS:A Companion to Methods in Enzymology (1994) 6:60-68, incorporated herein by reference).
(D) The compounds prepared in part (B) above were examined for activity against human brain NMDA receptors (composed of NR1 and NR2A subunits) expressed in oocytes. Ionic currents were activated by 200 μM L-glutamate (L-GIu) 20 μM glycine (Gly), at a holding potential Vh =[…]. Ba^2+ /flufenamic Ringer solution was supplemented with agonist and compounds of the invention, and blockade activity determined for each compound.
An example of how the assay method is performed follows, with reference to FIG. 5.

[2] = tested on: cultured hippocampal neurons; experiment: hippocampal neuronal cell death model (NMDA excitotoxicity); assay type: cell-based, mammalian; conditions: neurons exposed to 200 μM NMDA for 20 minutes (FIG. 3)
Description: In addition to approved clinical trials of the inventive compounds in humans, their efficacy can be confirmed in various known animal models for cerebral impairments associated with NMDA receptor pathology, such as the rat ischemia model (e.g., Seif, et al., Eur J Pharmacol (1990) 185:19-24 and Block and Schwara, Neurosci Lett (1996) 208:41-44). Useful in vitro models for testing neuroprotective drug effects in cerebral neuronal cells are also known and include the chick embryo hypoxia model (e.g., Krieglstein, et al., J Pharmacol Meth (1988) 20:39-46) and the mammalian hippocampal neuronal system in which the inventive compounds were tested (e.g., Schinder, et al., supra). These references are each incorporated by reference to illustrate knowledge in the art concerning models of cerebral dysfunction. Those of ordinary skill in the art will be familiar with, or can readily ascertain, other suitable models for use in testing the compounds of the invention.
Testing of the NMDA blockers of the invention in a hippocampal cell model for neurodysfunction (using the method described in Schinder, et al., J Neurosci (1996) 16:6125-33, incorporated herein by reference) yielded surprising results. Specifically, the NMDA blockers of the invention exert a substantial protective effect against cell death induced by exposure of cultured hippocampal neurons to glutamate agonists in the described model of neuronal cell death due to NMDA receptor dysfunction. In this model, neurons exposed to 200 μM NMDA for 20 minutes display extensive death that can be prevented by open channel blockers such as MK-801 or memantine (FIG. 3). This in vitro paradigm of excitotoxicity provides an assay of neuroprotection (see e.g., Schinder et al., supra and Deshpande, et al., Arch Toxicol, 69:384-390).

[3] = biological target: T2, AMPA-receptor subunit GluR1 (Homo sapiens, UniProt P42261); experiment: current blockade at non-NMDA glutamate receptor channels in amphibian oocytes; assay type: cell-based
T2 construct: expressed in transfected cells; host or cells: amphibian oocytes
T2 sequence (P42261 19-906): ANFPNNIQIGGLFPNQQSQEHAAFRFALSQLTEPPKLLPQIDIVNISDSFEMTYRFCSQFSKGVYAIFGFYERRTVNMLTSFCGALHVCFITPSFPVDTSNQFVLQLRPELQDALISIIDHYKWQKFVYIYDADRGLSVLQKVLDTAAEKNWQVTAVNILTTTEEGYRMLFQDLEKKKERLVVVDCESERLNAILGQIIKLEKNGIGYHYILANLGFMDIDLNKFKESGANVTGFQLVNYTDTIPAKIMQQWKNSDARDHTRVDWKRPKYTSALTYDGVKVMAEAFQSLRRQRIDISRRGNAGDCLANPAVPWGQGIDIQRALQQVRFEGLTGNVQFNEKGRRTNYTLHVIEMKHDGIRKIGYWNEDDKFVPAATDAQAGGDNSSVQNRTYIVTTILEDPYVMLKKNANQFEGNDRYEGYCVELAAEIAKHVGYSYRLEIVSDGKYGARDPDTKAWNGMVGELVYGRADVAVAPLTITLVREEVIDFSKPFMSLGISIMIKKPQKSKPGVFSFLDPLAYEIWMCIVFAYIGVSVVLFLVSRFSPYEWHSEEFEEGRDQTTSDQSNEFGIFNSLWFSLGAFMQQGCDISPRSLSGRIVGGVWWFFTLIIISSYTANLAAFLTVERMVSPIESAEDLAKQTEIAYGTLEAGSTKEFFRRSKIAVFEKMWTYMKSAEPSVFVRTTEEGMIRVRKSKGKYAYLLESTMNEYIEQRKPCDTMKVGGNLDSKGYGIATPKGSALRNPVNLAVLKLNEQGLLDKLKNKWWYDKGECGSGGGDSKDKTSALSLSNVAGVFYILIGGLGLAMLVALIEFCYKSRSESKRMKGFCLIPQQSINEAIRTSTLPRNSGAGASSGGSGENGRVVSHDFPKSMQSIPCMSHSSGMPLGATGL
Description: FIG. 1 is a bar graph which depicts the extent of current blockade achieved by various peptides of the invention acting on NMDA receptors ("NMDAR", solid bars) and glutamate receptors of the AMPA-receptor subunit GluR1 type ("GluR1", shaded bars) in amphibian oocytes. Each tested peptide is identified by sequence and test number along the bottom axis of the graph. Current blockade is expressed as a function of the extent of current reduction as compared to current produced in control amphibian oocytes.
(B) To examine the specificity of the blockade activity, the activity of the peptides on glutamate receptor channels of the non-NMDA subtype, specifically, the AMPA-receptor subunit GluR1, was tested.

[4] = Table 2, bicyclic compounds, 200 μM L-glutamate 20 μM glycine, Vh = −80 mV, blocked response 1-(Icmpd/Iagonist), read-out: IC50 (μM) Inhibitory Concentrations

Molecule: 2H-3-(3-guanidinopropyl)-7-(3-guanidinopropyl)-8-(3-methylbutyl)diazolidine[1,2-b]dihydroimidazole
- IC50 [1, 4]: 4.2 µM

Molecule: 2H-3-(3-guanidinopropyl)-7-(but-2-yl)-8-(3-methyl-butyl)diazolidine[1,2-b]dihydroimidazole
- IC50 [1, 4]: 11.8 µM

Molecule: 2H-3-(4-fluorobenzyl)-7-(3-guanidinopropyl)-8-(3-methylbutyl)diazolidine[1,2-b]dihydroimidazole
- IC50 [1, 4]: 6.1 µM

Molecule: 2H-3-(4-fluorobenzyl)-7-(but-2-yl)-8-(3-methyl-butyl)diazolidine[1,2-b]dihydroimidazole
- IC50 [1, 4]: 1.2 µM

Molecule: 2H-3-(4-fluorobenzyl)-7-(t-butyl)-8-(3-methyl-butyl)diazolidine[1,2-b]dihydroimidazole
- IC50 [1, 4]: 2.2 µM

Molecule: C[C@]12N[C@H](Cc3ccccc31)c1ccccc12 [MK-801, reference compound]
- protection of neurons from excitotoxic cell death [2]: prevented

Molecule: N=C(N)NCCC[C@H](NC(=O)[C@H](CCCNC(=N)N)NC(=O)[C@H](CCCNC(=N)N)NC(=O)[C@H](CCCNC(=N)N)NC(=O)[C@H](CCCNC(=N)N)NC(=O)[C@@H](N)CCCNC(=N)N)C(N)=O [RRRRRR]
- protection of neurons from excitotoxic cell death [2]: protected neurons from excitotoxic cell death
- IC50 [1]: 0.5 ± 0.1 µM

Molecule: CC12CC3CC(C)(C1)CC(N)(C3)C2 [memantine, 1-amino-3,5-dimethyladmantane hydrochloride, reference compound]
- protection of neurons from excitotoxic cell death [2]: prevented

Molecule: CC(C)C[C@@H](NC(=O)[C@@H](Cc1ccc(O)cc1)NC(=O)[C@H](N)CCCNC(=N)N)C(=O)N[C@H](Cc1ccccc1)C(=O)N[C@H](CCCNC(=N)N)C(=O)N[C@H](CCCNC(=N)N)C(N)=O [rylfrr] (H-[dR][dY][dL][dF][dR][dR]-NH2)
- IC50 [1]: 27 ± 4 µM

Molecule: H-RRRRWW-NH2 (C-terminus assumed) [RRRRWW]
- protection of neurons from excitotoxic cell death [2]: prevented neuronal cell death
- IC50 [1]: 0.1 µM
- current blockade at a steady concentration compared with the same concentration of memantine (FIG. 2) [1]: comparable
- potency rank as NMDA blocker (FIG. 1) [1]: most potent
- selectivity for NMDA receptor channels [1]: selective for NMDA receptor channels
- blockade effect on non-NMDA glutamate receptors [3]: no blockade effect

Molecule: RRCRWW
- protection of neurons from excitotoxic cell death [2]: prevented neuronal cell death
- selectivity for NMDA receptor channels [1]: selective for NMDA receptor channels
- blockade effect on non-NMDA glutamate receptors [3]: no blockade effect

Molecule: RRRCRW
- potency rank as NMDA blocker (FIG. 1) [1]: most potent

Molecule: RRRCWW
- sensitivity of AMPA receptor channels to the peptides (FIG. 1) ([3]; set result: weakly sensitive): excepting

Molecule: RRRRRW
- protection of neurons from excitotoxic cell death [2]: prevented neuronal cell death; also recorded: protected neurons from excitotoxic cell death
- current blockade at a steady concentration compared with the same concentration of memantine (FIG. 2) [1]: comparable
- effect on evoked inward currents upon perfusion (FIG. 5) ([1]; 200 μM L-glutamate/20 μM glycine): sharply attenuated
- increase of blockade efficacy by a C-terminal tryptophan (Ki RRRRRR vs RRRRRW) ([1]; compared with RRRRRR (#111)): 1000 fold
- potency rank as NMDA blocker (FIG. 1) [1]: most potent
- selectivity for NMDA receptor channels [1]: selective for NMDA receptor channels
- blockade effect on non-NMDA glutamate receptors [3]: no blockade effect

Molecule: RRRRW
- protection of neurons from excitotoxic cell death [2]: protected neurons from excitotoxic cell death
